Results from article PMC11314561, “Design and Synthesis of Novel Aminoindazole-pyrrolo[2,3-b]pyridine Inhibitors of IKKα That Selectively Perturb Cellular Non-Canonical NF-κB Signalling” (Molecules, 2024).

Columns and labels:
[1] = target: T1, IKKα (Homo sapiens, UniProt O15111); assay: DELFIA kinase assay, IKKα; assay type: biochemical; details: DELFIA kinase assay
T1 sequence (O15111 1-745): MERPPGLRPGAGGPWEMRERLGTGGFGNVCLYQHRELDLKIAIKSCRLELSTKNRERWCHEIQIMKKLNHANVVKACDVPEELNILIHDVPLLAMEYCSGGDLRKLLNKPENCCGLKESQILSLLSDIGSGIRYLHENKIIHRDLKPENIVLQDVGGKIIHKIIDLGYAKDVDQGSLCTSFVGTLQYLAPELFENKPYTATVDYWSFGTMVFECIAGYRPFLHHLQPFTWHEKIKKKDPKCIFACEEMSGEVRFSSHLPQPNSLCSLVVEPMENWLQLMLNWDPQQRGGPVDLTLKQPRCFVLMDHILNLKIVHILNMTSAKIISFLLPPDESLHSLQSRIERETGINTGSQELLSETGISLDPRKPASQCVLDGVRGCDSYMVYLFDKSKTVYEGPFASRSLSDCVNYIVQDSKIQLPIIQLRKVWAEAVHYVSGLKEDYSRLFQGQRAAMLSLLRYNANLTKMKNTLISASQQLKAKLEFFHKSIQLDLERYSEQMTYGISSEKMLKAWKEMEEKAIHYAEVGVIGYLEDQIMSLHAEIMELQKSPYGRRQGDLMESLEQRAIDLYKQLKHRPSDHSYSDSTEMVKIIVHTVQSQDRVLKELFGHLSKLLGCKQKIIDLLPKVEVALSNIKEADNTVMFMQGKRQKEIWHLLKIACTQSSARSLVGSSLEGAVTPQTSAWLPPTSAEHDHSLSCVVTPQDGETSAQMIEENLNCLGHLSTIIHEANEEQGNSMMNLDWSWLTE
Description: To examine the pyrrolo[2,3-b]pyridines as an alternative scaffold, we adopted the AIPP core because it had similar dimensions to SU909 (1), with HBD/HBA motifs positioned at the scaffold extremities to interact with both the hinge region and the G-loop wall of IKKα, a rationale we had previously proposed as the basis for imparting selectivity. A preliminary set of AIPP derivatives was designed and synthesised to explore its utility as an IKK-targeting scaffold, whilst incorporating additional functionality through which to introduce selectivity for the IKKα isoform (2–4; Figure 3). This was achieved by initially adopting two different approaches: either appending a hydrophobic moiety to the pyrrolo[2,3-b]pyridine motif as a fused form to afford the tricyclic derivatives 2 and 3, or as a phenyl substituent to introduce flexibility with respect to the central pyrrolo[2,3-b]pyridine moiety in 4. When assessed against IKKα and IKKβ using our in-house DELFIA kinase assay […] The pyrrolo[2,3-b]pyridine was bound to the hinge region in the classical HBA/HBD motif with the GK+3 amide backbone, whilst the aminoindazole projected towards the top of the pocket to interact with the G-loop (Figure 4A). […] In both isoforms, the 2-phenyl moiety protruded away from the hinge towards the exposed solvent area.
(§1) IKKα and IKKβ inhibitory activity were determined using a dissociation-enhanced ligand fluorescent immunoassay (DELFIA) based on the protocol of HTScan™ IKKβ Kinase Assay (Cell Signaling Technology, Danvers, MA, USA) as described in [24].

[2] = target: T2, IKKβ (Homo sapiens, UniProt O14920); assay: DELFIA kinase assay, IKKβ; assay type: biochemical; details: read-out: Ki Values IKKβ
T2 sequence (O14920 1-756): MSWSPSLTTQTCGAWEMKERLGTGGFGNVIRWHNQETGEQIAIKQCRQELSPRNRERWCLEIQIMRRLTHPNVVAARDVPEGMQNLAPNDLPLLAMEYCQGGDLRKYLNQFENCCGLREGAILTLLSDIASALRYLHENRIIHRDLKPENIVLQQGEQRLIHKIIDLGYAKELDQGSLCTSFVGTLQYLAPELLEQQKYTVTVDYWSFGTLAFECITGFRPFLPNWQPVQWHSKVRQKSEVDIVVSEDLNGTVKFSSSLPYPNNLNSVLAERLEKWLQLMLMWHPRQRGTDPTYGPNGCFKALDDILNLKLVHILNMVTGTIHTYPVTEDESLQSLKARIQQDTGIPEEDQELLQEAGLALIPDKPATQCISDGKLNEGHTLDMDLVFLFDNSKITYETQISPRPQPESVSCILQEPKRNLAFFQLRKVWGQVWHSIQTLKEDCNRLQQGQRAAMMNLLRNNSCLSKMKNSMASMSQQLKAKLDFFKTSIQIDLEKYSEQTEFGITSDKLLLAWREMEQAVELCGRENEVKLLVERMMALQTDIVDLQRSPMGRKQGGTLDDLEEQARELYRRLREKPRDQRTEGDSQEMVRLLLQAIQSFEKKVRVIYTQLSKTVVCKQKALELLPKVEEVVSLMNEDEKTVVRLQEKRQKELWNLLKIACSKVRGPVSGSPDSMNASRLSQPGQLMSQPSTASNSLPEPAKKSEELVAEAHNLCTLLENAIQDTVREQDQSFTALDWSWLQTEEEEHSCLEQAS
Procedure: as §1

[3] = Turbidimetric solubility; assay type: physicochemical; details: pH 7.4, aqueous buffer, kinetic from dmso stock, 0.01 M phosphate-buffered saline pH7.4
Procedure: Pharmacokinetic studies were contracted to Sygnature Discovery Limited. Turbidimetric Solubility was determined by diluting compound solutions (1 μM, 3 μM, 10 μM, 30 μM, 100 μM) prepared in DMSO into 0.01 M phosphate-buffered saline pH7.4. Turbidimetry was used as the endpoint by measuring absorbance at 620 nm.

[4] = Mouse hepatocyte intrinsic clearance and half-life; assay type: in vitro ADME; details: mouse CD1 hepatocytes
Procedure: Intrinsic clearance and half-life were determined using cryopreserved pooled mouse CD1 hepatocytes. Test compounds were analysed at 1 µM in Williams Media E buffer (0.01% DMSO) at a cell density of 0.5 × 10^6 cells mL^–1. Cells were incubated at 37 °C for one hour with shaking, and compound depletion was measured by LC-MS/MS at six time points (0.25, 5, 10, 20, 40, and 60 min).

With `Nc1n[nH]c2ccc(-c3ccnc4[nH]c(-c5ccnc(OCc6ccncc6)c5)cc34)cc12` [Compound 6k] the Ki [1] was 6 nM, the Ki [2] was 12 nM and the solubility [3] was > 100 µM. For the same compound, the half-life at 1 µM ([4]; cryopreserved pooled hepatocytes) was 2.02 h and the “Mouse Hepatocyte Clearance” value ([4]; 1 µM) was 11 μL/min/10^6 Cells.
